# System: washed monkey platelets
# Test: sGPVI production mechanism using monkey washed platelets
# Assay type: cell-based
# Conditions: stimulating agent added to washed platelet suspension with calcium chloride, 37° C. for 1 hour; sGPVI in supernatant by ELISA; compared with control group without stimulating agent (FIG. 8)
# Method: Human serum and human plasma were prepared by a 100-fold or more dilution with 0.1% BSA, 0.05% Tween 20, and 0.3 M NaCl/D-PBS and added to the F1232-7-1-immobilized plate to incubate at 28° C. for 2 hours. In addition, a recombinant human sGPVI-His that was expressed and purified by Free Style 293 Expression System (manufactured by Invitrogen) was used as the reference material. After the reaction incubation, the plate was washed with physiological saline containing 0.05% Tween 20. F1232-10-2 Fab′-HRP prepared in Example 1 as a secondary labeled antibody was diluted 100-fold with 2% rat serum and 0.05% Tween 20/D-PBS and added to the well to incubate at 28° C. for 1 hour. After washing the plate, tetramethylbenzidine (hereinafter described as TMB) that was returned to room temperature was added, and incubated for 10 minutes. After stopping the reaction by the addition of 0.5 M sulfuric acid, the absorbance at 450 nm was measured using a microplate reader SpectraMax (manufactured by Molecular Devices), and the absorbance at 650 nm was subtracted as a reference. The resulting absorbance was analyzed using a microplate data analysis software (SoftMax Pro 5.2, manufactured by Molecular Devices). In addition, the data was expressed in terms of mean±standard error (SE) in principle.
# Whole blood was collected from the monkey's leg vein using sodium citrate as an anticoagulant. Platelet-rich plasma (hereinafter described as PRP) was prepared by centrifuging the obtained whole blood at 900 rpm×10 minutes, and only PRP fraction was separated gently by PIPETMAN to transfer it to a new tube. The PRP was centrifuged at 2000 rpm×10 minutes at room temperature to precipitate the platelets. […] The number of platelets was counted by Sysmex F-820 (To a Medical Electronics Co., Ltd.), and the platelet count was adjusted to 40.0×10^7/ml. […]
# The production of sGPVI was examined by adding various stimulating agents such as collagen, sAβ, or fAβ, to monkey washed platelets. […] The concentration of sGPVI in the reaction mixture was measured by the ELISA method as described in Example 2.
row,Substance,production of sGPVI
1,collagen,production of sGPVI was observed
2,"fibril Aβ: Aβ1-42 incubated at room temperature for one week after the dilution in D-PBS, used as fibril amyloid β",production of sGPVI was observed
3,"sAβ: Aβ1-42 (AnaSpec Inc) just after diluted in D-PBS, used as soluble amyloid β",production of sGPVI was not observed
